# In patent US20090285820A1, “Methods of Treating Degenerative Disorders With Rac 1B Inhibitor” (priority 2006, published 2009):
# Legend:
# Type in all cases: cell-based
# [1] = system: rac1b mRNA in SH-SY5Y cells; assay: Induction of rac1b splicing by oxidative stress, nested PCR of rac1b; details: 24 hours, subtoxic concentrations
# Experimental: (§1) To test whether ROS production may affect the rac1/rac1b ratio SH-SY5Y cells were exposed to various ROS-inducing agents at the indicated concentrations for 24 hours and cell viability was determined using a LDH assay (Cytotox96, Promega).
# (§2) SH-SY5Y cells were plated in 24 well plates (ATGC, France) at the initial density of 3*10^5 cells/well. After 24 hours, cells were treated with various ROS-inducing agents at the indicated concentrations. After 24 h incubation, a LDH assay was conducted to reveal cell viability and cells were processed for RNA extraction using Trizol.
# (§3) To test the effect of ROS producing agents TBH and 6-OHDA on mRNA levels of rac1 and rac1b, SH-SY5Y cells were exposed to various ROS-inducing agents at the indicated concentrations for 24 hours and rac1 and rac1b were either coamplified using primers nm—006908_F1 and nm—006908_R1, or rac1b was specifically amplified in a nested PCR approach that sequentially used primers nm—006908_F1 and nm—006908_R1, then primers nm—006908_F2 and nm—006908_R1. GAPDH was amplified as control.
# [2] = system: rac1 mRNA in SH-SY5Y cells; assay: Effect of oxidative stress on rac1 levels, PCR of rac1; details: 24 hours
# Experimental: as §1, §2, §3
# [3] = system: rac1b mRNA in rat primary cortical cells; assay: Induction of rac1b splicing by Abeta, nested PCR of rac1b mRNA; details: rat cortical cells exposed to Abeta for 24 hours; observed at 11.25 and 22.5 μM; two independent cultures
# Experimental: Rat primary cortical cell cultures are sensitive to Abeta toxicity, the neurotoxicity of which involves different mechanisms such as calcium homeostasis dysregulation, accumulation of ROS, secondary excitotoxicity and caspase activation (Zhang et al, J Neurochem 1996, 67 (4) 1595-1606). Abeta peptide is dissolved in 100% HFIP (1,1,1,3,3,3-hexafluoro-2-propanol), then dryed out and resuspended in 100% DMSO and rediluted in DMEM/F12 without phenol red. The solution maturates by incubation at 37° C. during 72 h and Aβ oligomers are then added on 7 days cultures for 24 h. After 24 h incubation, cells were processed for RNA extraction using Trizol. A nested PCR approach was used for the amplification rac1b using the following primers: nm—006908_F1: […] (SEQ ID NO 9), nm—006908_R1: TGGCATTGAGTGCGAAGGC (SEQ ID NO 10), nm—006908_F2: AAAGACAAGCCGATTGCCG (SEQ ID NO 11). Rac1 was amplified following the first PCR of the protocol described below using primers nm—006908_F1 and nm—006908_R1. In these conditions, rac1b was not detected on gel due to its low quantity after single PCR amplification and was easily detected using primers nm—006908_F2 and nm—006908_R1 in the nested PCR. […]
Molecule,mRNA levels of rac1b [1],mRNA levels of rac1 [2],mRNA levels of rac1b [3]
"NCCc1cc(O)c(O)cc1O [6-OHDA, 6-hydroxydopamine]",dose dependent accumulation of rac1b,rac1 levels are not altered,
"Abeta: fragment of Abeta42 containing the aminoacids 25 to 35 that reproduces the toxic mechanisms of Aβ42 (GSNKGAIIGLM; Amyloid-beta protein 42; UniProt P05067 696-706, looked up, fragment)",,,dose dependent accumulation of rac1b mRNA
"CC(C)(C)OO [TBH, t-butyl hydroperoxide]",dose dependent accumulation of rac1b,rac1 levels are not altered,
